Source: US9738628B2, “Substituted 1H-indazol-1-OL analogs as inhibitors of beta catenin/Tcf protein-protein interactions” (University of Utah Research Foundation, priority 2012, dated 2017)

Legend:
[1] = test system: HCT116 colon cancer cell line; assay: MTS-based cell proliferation inhibition assay; set-up: species or system human; conditions: dose-dependent (FIG. 2)
β-catenin/Tcf4 = β-catenin/Tcf4 (Homo sapiens (Human), UniProt P35222); assay: Fluorescence polarization (FP) competitive inhibition assay, β-catenin/Tcf4; type: binding; conditions: Table 2, mean ± SD (n=3)
β-catenin/Tcf4, sequence (P35222 138-686): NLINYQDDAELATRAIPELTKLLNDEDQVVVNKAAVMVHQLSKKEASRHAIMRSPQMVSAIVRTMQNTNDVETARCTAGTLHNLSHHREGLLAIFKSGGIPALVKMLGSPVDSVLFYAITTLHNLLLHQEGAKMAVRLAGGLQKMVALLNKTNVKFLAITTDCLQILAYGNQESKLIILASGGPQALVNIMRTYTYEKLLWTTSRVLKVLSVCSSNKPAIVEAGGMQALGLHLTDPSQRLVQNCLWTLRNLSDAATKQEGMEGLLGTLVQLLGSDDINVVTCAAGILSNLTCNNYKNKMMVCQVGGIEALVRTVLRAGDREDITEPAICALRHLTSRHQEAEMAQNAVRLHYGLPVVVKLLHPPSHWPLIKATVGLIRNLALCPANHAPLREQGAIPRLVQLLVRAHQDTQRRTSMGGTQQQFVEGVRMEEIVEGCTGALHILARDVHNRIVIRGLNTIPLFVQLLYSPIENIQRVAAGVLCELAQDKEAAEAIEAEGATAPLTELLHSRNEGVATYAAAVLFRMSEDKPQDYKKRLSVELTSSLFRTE
Experimental: Experiments were performed in 96-well Microfluor 2 black plates (Waltham, Mass.), and the samples were read by a Synergy 2 plate reader (Biotek, Winooski, Vt.). […] The final reaction volume is 100 μL.

Substance: 3-(2-(1-hydroxy-1H-indazol-5-yl)ethyl)-1,2,4-oxadiazole-5(4H)-thione [Compound 14]
- inhibition of growth of colon cancer cell HCT116 [1]: inhibit the proliferation

Substance: 3-((1-hydroxy-1H-indazol-5-yl)methyl)-1,2,4-oxadiazol-5(4H)-one [Compound 10]
- Ki (β-catenin/Tcf4): 125 ± 1.3 µM

Substance: 5-(2-(2H-tetrazol-5-yl)ethyl)-1H-indazol-1-ol [Compound 12]
- inhibition of growth of colon cancer cell HCT116 [1]: inhibit the proliferation
